Consider 17 molecules from patent US20080081781A1, “Methods and compositions for the treatment of metabolic syndrome” (priority 2004, published 2008).

Where a name gives a salt, the structure may show the parent alone. Read-outs that look alike come from different tables or passages of the source.

The nature of data set [1]: Pharmacokinetics of 3H-berberine in rabbits, intravenous and intravenous drip. How it is done: 0.1 ml of blood was removed at various times and radiation emissions were measured.
Data set [2] in a line: Excretion of berberine in rats (urine, fecal matter, gall bladder secretions). In kind it is in vivo, rat. The note with it: rats, oral 3H-berberine, forty-eight hours. How it is done:
In a final series of animal model studies, rats were orally administered 3H-berberine. Forty-eight hours after administration, excretions were tested for the presence of berberine. 2.7% of the oral dose was measured in the urine and 86% of the oral dose was measured in the fecal matter.
Rats received intravenous berberine (9.25 MBq/kg). Six days accumulation of rat urine and fecal secretions were measured for the presence of berberine. 73% of the intravenous dose of the berberine was found in the accumulated urine in both metabolized and unmetabolized forms. 10.9% of the intravenous dose was found in the fecal matter.
Three rats were given berberine (9.25 MBq/kg) intravenously. After 24 hours, gall bladder secretions were collected and evaluated for the presence of berberine. There was 10.1±0.9% (x±SD, n=3) of berberine in the gall bladder secretions.

Data set [3] in a line: Tissue distribution of 3H-berberine in mice. The note with it: tail vein 135 LBq/10 g, 5 minutes to 2 hours. In kind it is in vivo, mouse. How it is done: Tissue radiation emission was measured 5 minutes to 2 hours after administration with the distribution of the berberine concentrations from highest to lowest being: lung>liver>kidney>spleen>heart>intestine>stomach>brain.

The conditions of data set [4]: Distill Water; amount of solute 10 mg.
Another data set relates to LDLR mRNA. Kind of data set: Kinase inhibitors on berberine-induced LDLR mRNA in HepG2 cells (RT-PCR). The class given is cell-based, human. The note with it: HepG2, inhibitor 1 hour before 7.5 μg berberine 8 hours; calphostin C 0.2 μM. How it is done:
(§1) To explore the pathway responsible for the berberine-induced InsR gene transcription, different kinase inhibitors were used, including the MEK1-ERK inhibitor U0126, the p38 kinase inhibitor SB203580, the c-Jun N-terminal kinase inhibitor curcumin, the PI-3 kinase inhibitor wortmannin, and the PKC inhibitor calphostin C.
(§2) HepG2 cells were pretreated with each of the inhibitors 1 hour prior to treatment with 7.5 μg of berberine for 8 hours. Total RNA was then isolated and the relative amount of InsR and LDLR mRNA was measured by quantitative RT-PCR as described in Example XVII. It was determined that the activity of berberine on InsR gene transcription was most sensitive to the PKC inhibitor calphostin C.

Another data set has as its system InsR mRNA. Briefly: Kinase inhibitors on berberine-induced InsR gene transcription in HepG2 cells (RT-PCR). In kind it is cell-based, human. To be noted: HepG2, inhibitor 1 hour before 7.5 μg berberine 8 hours; calphostin C 0.2 μM. How it is done: as §1, §2
Another data set relates to hyperlipidemia patients. To be noted: three months.
The subject of the next data set is rat model subjects. Kind of data set: Combinatorial anti-hyperlipidemia efficacy of berberine and lovastatin in rats (Table 9). The class given is in vivo.
Data set [5] relates to patients with type 2 diabetes. In kind it is in vivo, human. The note with it: patients with type 2 diabetes, Mean ± SE. The source says: Ninety-seven hyperglycemic patients (54 males and 43 females) with fasting blood glucose>7 mmol/L and post-prandial blood glucose>11.1 mmol/L were enrolled in a study at the Nanjing First Hospital in Nanjing, China. The patients were asked to end any current treatments for hyperglycemia at least 2 weeks prior to commencement of the study.
Fifty of the patients (male/female, 27/23; age 57±8y) were randomly assigned to be given 0.5 gram twice a day (1g/day total) of berberine (Nanjing Second Pharmaceutics, Inc., Nanjing, China), orally for 2 months. Out of these 50 patients, 25 had hyperlipidemia, 9 had hypertension and 2 had cardiovascular disease. Twenty-six patients (male/female, 15/11; age 56±11 y) were given 1.5 grams of metformin (Double-Crane Pharmaceutical, Inc., Beijing, China) per day, orally for two months. Of these twenty-six patients, 11 had hyperlipidemia, and four had hypertension. The remaining twenty-one patients (male/female, 11/10, age 49±10 y) were given 4 mg per day of rosiglitazone (Glaxowelcome, UK), orally for two months. Of these 21 patients, ten had hyperlipidemia and four had hypertension. Metformin and rosiglitazone served as reference controls as they are standard treatments for type 2 diabetes.
Blood samples were taken prior to the commencement of therapy and after completion of the therapy.

For data set [6], the system named is high fat high cholesterol (HFHC) diet rats. Kind of data set: Combination treatment with berberine and simvastatin in HFHC diet rats (Table 8). In kind it is in vivo, rat. To be noted: oral, after 25 days, daily dose berberine 100 mg/kg, simvastatin 25 mg/kg, combination 100 + 25, average ± standard error. How it is done: Rats were fed a high fat high cholesterol (HFHC) diet for 10 days, and then divided into groups of seven. The rats were then administered berberine or simvastatin, or a combination of berberine and simvastatin orally for 25 days. After 25 days, serum cholesterol, triglyceride and LDL-c levels were measured. […] The combination of simvastatin, and berberine lowered the cholesterol, triglyceride and LDL-c levels further than either alone.

A further data set deals with InsR gene promoter. Briefly: InsR promoter activity, pGL3-1.5kIRP transfected HepG2 cells. In kind it is cell-based, human. To be noted: pGL3-1.5kIRP transfected HepG2; calphostin C 0.2 μM, berberine 5 μg/ml. How it is done: The InsR promoter luciferase gene fusion plasmid (pGL3-1.5kIRP) was kindly provided by Dr. Araki E of the Graduate School of Medical Sciences, Kumamoto University, Honjo, Kumamoto, Japan.
After overnight incubation, the cells were treated with DMSO as the solvent control or with 0, 1, 2.5, 5, 7.5 and 10 μg/ml berberine for 8 h. Cell lysates were prepared and luciferase activities were measured using the Luciferase Reporter Gene Assay (Roche Applied Science). The experiment was repeated 4 times.

For another data set, the system named is LDLR promoter. Kind of data set: LDLR promoter activity, pLDLR234Luc reporter in HepG2 cells. In kind it is cell-based, human. The note with it: pLDLR234Luc HepG2, LPDS or LPDS and cholesterol medium, 8 hour treatment. From the text: HepG2 cells were transfected with the reporter construct pLDLR234Luc, which contains the SRE- I motif and the sterol-independent regulatory element that mediates the cytokine oncostatin M-induced transcription of the LDLR gene.

Setting [7] is: 0.5 g twice a day, all treated patients (n=63).
Where [8] appears, read: only participants neither on drugs nor special diets.
Setting [9] is: high fat diet rats treated for 15 days, berberine 80 mg/kg/day, lovastatin 10 mg/kg/day.
The mark [10] stands for this setting: high fat diet rats, Day 0 (untreated rats, baseline).
Where [11] appears, read: After treatment (2 months), oral: berberine 1 g/day, metformin 1.5 g/day, rosiglitazone 4 mg/day.

Procedure for hyperlipidemia patients: After three months, fasting serum concentrations of cholesterol, triglycerides, HDL and LDL were measured using standard blood lipid tests.

In turn, 3H-berberine yielded a volume of distribution (Vd) in [1] (5 rabbits, intravenously 25 MBq/kg) of 20 ± 3 L/kg. In data set [1] (four rabbits, intravenous drip 46.25 Mbq/kg), this molecule came in with a Vd of 22.1 ± 1.7 L/kg. Further, in [2], the “oral dose measured in the fecal matter” value was found to be 86% and the “oral dose measured in the urine” value worked out at 2.7%. Moreover, the “distribution of concentrations in tissues, highest to lowest” value in data set [3] was “lung>liver>kidney>spleen>heart>intestine>stomach>brain”.
Take `CC(=O)[O-].COc1ccc2cc3[n+](cc2c1OC)CCc1cc2c(cc1-3)OCO2` [3. Acetate]: the “Amount of Solvent” value in data set [4] is reported as 9.0.
With `CC(O)C(=O)[O-].COc1ccc2cc3[n+](cc2c1OC)CCc1cc2c(cc1-3)OCO2` [4. Lactate], the “Amount of Solvent” value in data set [4] came to 6.0.
On the same count and under the same terms, the figure for `COc1ccc2cc3[n+](cc2c1OC)CCc1cc2c(cc1-3)OCO2.CS(=O)(=O)[O-]` [6. Methanesulfonate] is 1.5; for `COc1ccc2cc3[n+](cc2c1OC)CCc1cc2c(cc1-3)OCO2.O=S(=O)([O-])O` [7. Hydrosulfate] it is 1.5; for `COc1ccc2cc3[n+](cc2c1OC)CCc1cc2c(cc1-3)OCO2.COc1ccc2cc3[n+](cc2c1OC)CCc1cc2c(cc1-3)OCO2.O=S(=O)([O-])[O-]` [8. Sulfate] it is 0.5.
Same read-out and setting: the figure for `COc1ccc2cc3[n+](cc2c1OC)CCc1cc2c(cc1-3)OCO2.O=C([O-])c1ccccc1` [13. Benzoate] is 7.0.
Same read-out and setting: the figure for `COc1ccc2cc3[n+](cc2c1OC)CCc1cc2c(cc1-3)OCO2.Cc1ccc(S(=O)(=O)[O-])cc1` [15. Toluenesulfonate] is 11.0; for `COc1ccc2cc3[n+](cc2c1OC)CCc1cc2c(cc1-3)OCO2.O=C([O-])C(F)(F)F` [16. Trifluoroacetate] it is 7.5.
Consider `N#CC(=C(/N)Sc1ccccc1N)/C(C#N)=C(\N)Sc1ccccc1N` [U0126], for which the “effect of inhibitor on berberine-increased level of LDLR mRNA” value in the data set with LDLR mRNA is given as “completely abolished”. Also, the “effect of inhibitor on the activity of berberine on InsR gene transcription” value with InsR mRNA is listed as “did not effect”.
As for `COc1ccc2cc3[n+](cc2c1OC)CCc1cc2c(cc1-3)OCO2` [berberine hydrochloride], in the data set on hyperlipidemia patients (setting [7]), the “lowering of serum LDL” value amounted to 20%, the “lowering of serum cholesterol” value was 18% and the “lowering of serum triglycerides” value is reported as 28%. In the data set on hyperlipidemia patients (setting [8]), the “decrease of serum LDL” value came to 25%, the “decrease of serum cholesterol” value was 29% and the “decrease of serum triglycerides” value amounted to 35%.
Regarding `CC[C@H](C)C(=O)O[C@H]1C[C@@H](C)C=C2C=C[C@H](C)[C@H](CC[C@@H]3C[C@@H](O)CC(=O)O3)[C@H]21` [lovastatin, reference compound], in the data set with rat model subjects (setting [9]), the “Cholesterol Day 15” value came out at 2.7 mmol/L and the “LDL Day 15” value was determined as 1.62 mmol/L. Further, in the data set with rat model subjects (setting [10]), the “Cholesterol Day 0” value was found to be 3.6 mmol/L and the “LDL Day 0” value is 2.15 mmol/L.
On to `CN(C)C(=N)N=C(N)N` [metformin, reference compound], for which, in [5] (setting [11]), the HbA1c was 7.2 ± 0.3 % and the Triglyceride was found to be 1.6 ± 0.1 mmol/L. Besides, in data set [5] (Before treatment (baseline)), the “FBG (fasting blood glucose)” value is given as 10.9 ± 0.5 mmol/L, the HbA1c came out at 9.4 ± 0.5% and the Triglyceride is 1.7 ± 0.2 mmol/L.
The matching figures for `CN(CCOc1ccc(CC2SC(=O)NC2=O)cc1)c1ccccn1` (stereo not drawn) [rosiglitazone, reference compound]: 6.8 ± 0.3 %, 1.6 ± 0.1 mmol/L, 9.1 ± 0.8 mmol/L, 8.3 ± 0.4% and 1.9 ± 0.3 mmol/L.
As for `CCC(C)(C)C(=O)O[C@H]1C[C@@H](C)C=C2C=C[C@H](C)[C@H](CC[C@@H]3C[C@@H](O)CC(=O)O3)[C@H]21` [simvastatin, reference compound], in [6], the LDL-c is recorded as 1.4 ± 0.1 mmol/L, the “Total Cholesterol” value worked out at 3.6 ± 0.4 mmol/L and the Triglyceride is listed as 2.5 ± 0.3 mmol/L.
For the molecule Calphostin C, in the data set on LDLR mRNA, the “effect of inhibitor on berberine-increased level of LDLR mRNA” value was “did not change”. Further, the “effect of PKC inhibitor pre-treatment on berberine stimulation of InsR gene promoter” value in the data set with InsR gene promoter is on record as “diminished the ability of berberine to stimulate the InsR gene promoter”. Also, the “effect of inhibitor on the activity of berberine on InsR gene transcription” value in the data set on InsR mRNA is reported as “completely eliminated”.

B1: oncostatin M: cytokine oncostatin M that induces transcription of the LDLR gene (protein, UniProt P13725 26-221, looked up)
Oncostatin-M: AAIGSCSKEYRVLLGQLQKQTDLMQDTSRLLDPYIRIQGLDVPKLREHCRERPGAFPSEETLRGLGRRGFLQTLNATLGCVLHRLADLEQRLPKAQDLERSGLNIEDLEKLQMARPNILGLRNNIYCMAQLLDNSDTAEPTKAGRGASQPPTPTPASDAFQRKLEGCRFLHGYHRFMHSVGRVFSKWGESPNRSRR
As for B1, the LDLR promoter activity result in the data set on LDLR promoter is on record as “strongly elevated”.

What is called Vd is a proportionality between amount in the body and measured concentration, not a real space. The low end stands for little distribution into tissue, the high end for wide distribution into tissue.
